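Tested at 5 concentrations; 48 h exposure; 96-well plates; endpoints linearly interpolated, else capped at highest concentration. The concentration for full growth arrest is given as TGI.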
How the values were obtained:
Assay in all cases: inhibition of tumour cell growth, NCI panel, 48 h
MCF7 breast = tested on: MCF7 breast
NCI-H23 lung = tested on: NCI-H23 lung
SNB-75 CNS = tested on: SNB-75 CNS
UACC-257 melanoma = tested on: UACC-257 melanoma
RPMI-8226 leukemia = tested on: RPMI-8226 leukemia
BT-549 breast = tested on: BT-549 breast
COLO 205 colon = tested on: COLO 205 colon
HCC-2998 colon = tested on: HCC-2998 colon
HOP-62 NSCLC = tested on: HOP-62 NSCLC
SR leukemia = tested on: SR leukemia
CCRF-CEM leukemia = tested on: CCRF-CEM leukemia
PC-3 prostate = tested on: PC-3 prostate
SW-620 colon = tested on: SW-620 colon
DU-145 prostate = tested on: DU-145 prostate
SN12C renal = tested on: SN12C renal
K-562 leukemia = tested on: K-562 leukemia
EKVX NSCLC = tested on: EKVX NSCLC
A549 NSCLC = tested on: A549 NSCLC
U251 CNS = tested on: U251 CNS
M14 melanoma = tested on: M14 melanoma
T-47D breast = tested on: T-47D breast
NCI-H460 lung = tested on: NCI-H460 lung
SF-268 CNS = tested on: SF-268 CNS
MDA-MB-435 = tested on: MDA-MB-435
OVCAR-4 ovarian = tested on: OVCAR-4 ovarian
TK-10 renal = tested on: TK-10 renal
MDA-N = tested on: MDA-N
A498 renal = tested on: A498 renal
MALME-3M melanoma = tested on: MALME-3M melanoma
NCI-H226 lung = tested on: NCI-H226 lung
OVCAR-3 ovarian = tested on: OVCAR-3 ovarian
OVCAR-8 ovarian = tested on: OVCAR-8 ovarian
SK-MEL-5 melanoma = tested on: SK-MEL-5 melanoma
HT29 colon = tested on: HT29 colon
OVCAR-5 ovarian = tested on: OVCAR-5 ovarian
HOP-92 NSCLC = tested on: HOP-92 NSCLC
KM12 colon = tested on: KM12 colon
NCI-H522 lung = tested on: NCI-H522 lung
HL-60(TB) leukemia = tested on: HL-60(TB) leukemia
RXF 393 renal = tested on: RXF 393 renal
UO-31 renal = tested on: UO-31 renal
UACC-62 melanoma = tested on: UACC-62 melanoma
MDA-MB-231 breast = tested on: MDA-MB-231 breast
ACHN renal = tested on: ACHN renal
SF-295 CNS = tested on: SF-295 CNS
SK-OV-3 ovarian = tested on: SK-OV-3 ovarian
LOX IMVI melanoma = tested on: LOX IMVI melanoma
NCI/ADR-RES ovarian = tested on: NCI/ADR-RES ovarian
HCT-15 colon = tested on: HCT-15 colon
HS 578T breast = tested on: HS 578T breast
786-0 renal = tested on: 786-0 renal
IGROV1 ovarian = tested on: IGROV1 ovarian
HCT-116 colon = tested on: HCT-116 colon
SK-MEL-28 melanoma = tested on: SK-MEL-28 melanoma
CAKI-1 renal = tested on: CAKI-1 renal
SNB-19 CNS = tested on: SNB-19 CNS
SK-MEL-2 melanoma = tested on: SK-MEL-2 melanoma

Measured: TGI

CC(CC(=O)O)(CC(=O)O)c1ccccc1
> 100 µM: all assays above

Source: PubChem BioAssay (NCI)
